Laboratory results reported in patent US8828987B2, “Pyridine amide derivatives as EP4 receptor antagonists” (Rottapharm Biotech S.R.L., priority 2010, dated 2014).

Experiments:
[1] = biological target: T1, human EP4 receptor (Homo sapiens, UniProt P35408); test: [3H]-Prostaglandin E2 membrane binding assay (human EP4/HEK293 transfectant membranes); details: [3H]-PGE2 1 nM, hEP4/HEK293 membranes; Ki by Cheng-Prusoff; read-out: Binding pKi (converted)
T1 construct: expressed in transfected cells; membrane fraction used
From the text: (§1) Stable Expression of Human EP4 Receptors in the Human Embryonic Kidney (HEK293) Cell Line
(§2) The cDNA clone of human EP4 receptor (NM_000958.2) was obtained from Invitrogen™: Ultimate™ ORF Clone Collection—Clone ID IOH46525. The coding sequence was subcloned in expression vector pcDNA™6.2/V5-DEST by Gateway technology (Invitrogen™).
(§3) Human embryonic kidney cells (HEK-293) were stably transfected with expression vector for human EP4 receptor in according to the method described in FuGENE®6 Transfection Reagent's manual (Roche Applied Science®).
(§4) Preparation of Membrane Fraction:
(§5) The EP4 transfected cells were grown in Dulbecco's modified Eagle's medium containing 10% fetal bovine serum and 10 μg/ml Blasticidin S HCl (selection medium) at 37° C. in a humidified atmosphere of 5% CO2 in air.
(§6) For the membrane preparation, cells in flask were harvested by hypotonical/mechanical lysis with chilled (4° C.) TE buffer (5 mM TRIS, 5 mM etylenediamine tetra-acetic acid (EDTA), pH 7.4).
(§7) Cells were detached and lysed with 10 ml of hypotonic lysis buffer and by scraping. The cell lysate was vortexed for 30 sec and centrifuged at 40000×g at 4° C. for 22 min.
a) Membrane Binding Assay[3H]-Prostaglandin E2
The membrane pellet was resuspended in the same buffer (5 mM TRIS, 5 mM ethylenediamine tetra-acetic acid (EDTA), pH 7.4), and protein concentration was determined by Bradford method (Bio-Bad® assay).
This membrane preparation was stored at −80° C. freezer until use for binding assay.
([^3H]-PGE2) membranes binding assays toward hEP4 receptors (human EP4/HEK293 transfectant, see above) and hEP2 receptors (human EP2/HEK293 transfectant, purchased from PerkinElmer Inc) were performed in 10 mM MES-KOH buffer pH6, containing 10 mM MgCl2 and 1 mM CaCl2 for EP4 binding assay or 50 mM Tris-Cl, BSA 0.5% for EP2 binding assay (according to supplier indication).
Ten microgram of protein from membrane fractions were incubated in a total volume of 0.1 ml (EP4) or 0.2 ml (EP2) with 1 nM (EP4) or 3 nM (EP2) [^3H]-PGE2 (PerkinElmer Inc, 171 Ci/mmol). In both assays to determine the total binding or non specific binding, 1% DMSO or 1 μM prostaglandin E2 (EP4) or 100 μM (EP2) were added to reaction mixtures, respectively. Incubation was conducted in a polypropylene 96 multiwell for 90 min (EP4) or 60 min (EP2) at room temperature prior to separation of the bound and free radioligand by vacuum manifold rapid filtration on glass fiber filters (Unifilter GFB96, PerkinElmer Inc) pre-soaked in 0.3% polyethyleneimine. Filters were washed with ice cold buffer pH 7.4 (50 mM HEPES, NaCl 500 mM, BSA 0.1% for EP4 binding assay or 50 mM Tris-Cl for EP2 binding assays) and the residual [^3H]-PGE2 binding determined by solid scintillation counter (TopCount, PerkinElmer Inc).
The affinity (Ki) of each compound was calculated according to the Cheng-Prousoff equation: Ki=IC50/(1+([C]/Kd)). Results were expressed as pKi (−log 10 Ki (M)
Compounds of example 1 to 82 were tested according to method of example 83a in a final concentration range from 1 nM to 1 μM.

[2] = biological target: T1, human EP4 receptor; test: cAMP assay (AlphaScreen) on human EP4 membrane of transfected cells, antagonism of PGE2; type: biochemical; details: HEK293 hEP4 cell membrane stimulated with PGE2 3 nM; read-out: functional IC50
From the text: as §1, §2, §3, §4, §5, §6, §7
b) cAMP Assay on Human EP4 Membrane of Transfected Cells.
The assay is based on the competition between endogenous cAMP and exogenously added biotinylated cAMP. The capture of cAMP is achieved by using a specific antibody conjugated to […] beads.
Cell membranes prepared as described above, were resuspended in 1 ml stimulation buffer (HBSS 1×+BSA 0.1%+IBMX 0.5 mM+HEPES 5 mM+MgCl2 10 mM+GTP 1 nM+GDP 10 μM+ATP 100 μM−pH 7.4). Cell membranes were dispensed into white 384-well microplates at final concentration of 1 μg/well and used for the determination of cAMP with the alphascreen cAMP functional assay (EnVision—PerkinElmer). Cell membrane/anti-cAMP Acceptor beads mix (5 μl) and a mixture of analysed compounds (dissolved in 100% DMSO to a final maximal concentration of 0.01% DMSO)/PGE2 (5 μl) were incubated at room temperature (22-23° C.) for 30 min in the dark. The Biotinylated-cAMP and donor beads (15 μl) were dispensed into each well to start the competition reaction. After 1 h incubation RT (22-23° C.) in the dark the plate was read using EnVision platform to determine the cAMP level (excitation: 680 nm; emission: 520,620 nm).
cAMP standard curve (concentration range from 1×10-6 to 1×10-11 M in. log intervals) with a negative control (no cAMP) a positive control:forskolin 10 μM
Antagonism studies were performed stimulating HEK293 cell membrane with PGE2 3 nM. The AlphaScreen signal is plotted as a function of log concentration of cAMP and functional IC50 is determined. IC50 value is calculated by linear regression.
Some compounds were tested according to method of example 83b.

T1 sequence (P35408 whole entry): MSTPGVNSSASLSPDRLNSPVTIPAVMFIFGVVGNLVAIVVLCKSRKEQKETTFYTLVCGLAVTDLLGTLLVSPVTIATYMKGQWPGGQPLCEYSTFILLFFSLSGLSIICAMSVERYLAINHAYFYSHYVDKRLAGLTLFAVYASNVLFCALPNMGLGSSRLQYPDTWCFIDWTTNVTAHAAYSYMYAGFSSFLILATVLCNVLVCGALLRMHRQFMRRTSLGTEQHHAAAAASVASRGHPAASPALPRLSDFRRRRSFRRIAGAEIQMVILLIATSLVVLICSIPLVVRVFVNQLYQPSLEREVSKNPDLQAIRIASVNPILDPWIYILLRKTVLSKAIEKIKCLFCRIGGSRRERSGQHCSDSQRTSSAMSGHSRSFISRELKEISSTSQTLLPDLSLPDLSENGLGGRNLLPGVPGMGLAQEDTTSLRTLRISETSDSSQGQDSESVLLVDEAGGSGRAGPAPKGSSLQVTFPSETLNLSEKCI

Ki [1] | IC50 [2] | Structure (SMILES)
7.94 nM | 72 nM | O=C(O)c1ccc(C2(NC(=O)c3cc(C(F)(F)F)cnc3N3CC(Oc4ccc(F)cc4)C3)CC2)cc1 [E 39, 4-(1-(2-(3-(4-fluorophenoxy)azetidin-1-yl)-5-(trifluoromethyl)nicotinamido)cyclopropyl)benzoic acid]
200 nM | 102 nM | O=C(O)c1ccc(C2(NC(=O)c3cc(Cl)cnc3N3CCC(c4ccccc4)C3)CC2)cc1 (single isomer, unassigned) [E 4, 4-(1-(5-chloro-2-(3-phenylpyrrolidin-1-yl)nicotinamido)cyclopropyl)benzoic acid]
63.1 nM | 228 nM | O=C(O)c1ccc(C2(NC(=O)c3cc(C(F)(F)F)cnc3N3CC(Oc4cccc(C(F)(F)F)n4)C3)CC2)cc1 [E 47, 4-(1-(5-(trifluoromethyl)-2-(3-((6-(trifluoromethyl)pyridin-2-yl)oxy)azetidin-1-yl)nicotinamido)cyclopropyl)benzoic acid]
31.6 nM | 145 nM | O=C(O)c1ccc(C2(NC(=O)c3cc(Cl)cnc3N3CCC(Oc4cccc(C(F)(F)F)c4)C3)CC2)cc1 (single isomer, unassigned) [E 63, 4-(1-(5-chloro-2-(3-(3-(trifluoromethyl)phenoxy)pyrrolidin-1-yl)nicotinamido)cyclopropyl)benzoic acid]
25.1 nM | 75 nM | O=C(O)c1ccc(C2(NC(=O)c3cc(F)cnc3N3CC(Oc4cccc(Cl)c4)C3)CC2)cc1 [E 54, 4-(1-(5-fluoro-2-(3-(3-chlorophenoxy)azetidin-1-yl)nicotinamido)cyclopropyl)benzoic acid]
25.1 nM | 46 nM | O=C(O)c1ccc(C2(NC(=O)c3cc(Cl)cnc3N3CCC(Oc4ccccc4)C3)CC2)cc1 (single isomer, unassigned) [E 62]
10 nM | 17.5 nM | O=C(O)c1ccc(C2(NC(=O)c3cc(C(F)(F)F)cnc3N3CC(Oc4ccc(F)cc4F)C3)CC2)cc1 [E 44, 4-(1-(2-(3-(2,4-difluorophenoxy)azetidin-1-yl)-5-(trifluoromethyl)nicotinamido)cyclopropyl)benzoic acid]
39.8 nM | 65 nM | O=C(O)c1ccc(C2(NC(=O)c3cc(Cl)cnc3N3CCC(Oc4cccc(C(F)(F)F)c4)C3)CC2)cc1 (single isomer, unassigned) [E 65, 4-(1-(5-chloro-2-(3-(3-(trifluoromethyl)phenoxy)pyrrolidin-1-yl)nicotinamido)cyclopropyl)benzoic acid]
5.01 nM | 38 nM | O=C(O)c1ccc(C2(NC(=O)c3cc(Cl)cnc3N3CC(Oc4cccc(C(F)(F)F)c4)C3)CC2)cc1 [E 14, 4-(1-(5-chloro-2-(3-(3-(trifluoromethyl)phenoxy)azetidin-1-yl)nicotinamido)cyclopropyl)benzoic acid]
398 nM | 235 nM | O=C(O)c1ccc(C2(NC(=O)c3cc(Cl)cnc3N3CCCC3c3ccccc3)CC2)cc1 (single isomer, unassigned) [E 1, 4-(1-(5-chloro-2-(2-phenylpyrrolidin-1-yl)nicotinamido)cyclopropyl)benzoic acid]
31.6 nM | 99 nM | O=C(O)c1ccc(C2(NC(=O)c3cc(Cl)cnc3N3CCC(Oc4cccc(C(F)(F)F)c4)C3)CC2)cc1 (single isomer, unassigned) [E 64, 4-(1-(5-chloro-2-(3-(3-(trifluoromethyl)phenoxy)pyrrolidin-1-yl)nicotinamido)cyclopropyl)benzoic acid]
12.6 nM | 70 nM | O=C(O)c1ccc(C2(NC(=O)c3cc(Cl)cnc3N3CC(Oc4ccc(F)cc4)C3)CC2)cc1 [E 15, 4-(1-(5-chloro-2-(3-(4-fluorophenoxy)azetidin-1-yl)nicotinamido)cyclopropyl)benzoic acid]
31.6 nM | 119 nM | O=C(O)c1ccc(CNC(=O)c2cc(Cl)cnc2N2CC(Oc3cccc(F)c3)C2)cc1 [E 22, 4-((5-chloro-2-(3-(3-fluorophenoxy)azetidin-1-yl)nicotinamido)methyl)benzoic acid]
